Results on one molecule are retold here after patent publication US20240189279A1, “IMMUNOMODULATORY COMPOSITIONS AND METHODS OF USE THEREOF” (THE TEXAS A&M UNIVERSITY SYSTEM, priority 2022, published 2024).

The structures appear in SMILES notation. “Also recorded” adds a separate entry of the source.

Experiment [1] relates to inflammatory cytokines in liver tissue. The experiment can be described thus: Liver cytokine measurements (bead-based 13-cytokine panel) in WD mice. The note with it: week 16. It is filed as in vivo, mice (male B6 129SF1/J). The text has this: Animal experiments. Male B6 129SF1/J mice at 6 weeks of age were obtained from Jackson Laboratories (Bar Harbor, ME). Mice were acclimatized to the animal facility for one week. At the start of the experiment, mice were randomly divided into four groups (n=10 for each group). Three of the four groups were fed ad libitum a Western diet (WD) with 40% Kcal from fat and containing 0.15% cholesterol (D12079B, Research Diets) and a sugar water (SW) solution (23.1 g/L d-fructose+18.9 g/L d-glucose) as previously described (DIAMOND model (15)). After 8 weeks, the three groups of WD-fed mice were randomly selected for treatment with vehicle (WD group) or low (WD-50 group) or high dose (WD-100 group) of […]. The WD group was fed WD and drank sugar water. The WD-50 and WD-100 groups were fed WD and drank sugar water containing, respectively, 50 or 100 mg […] per kg body weight. The treatments were continued for another 8 weeks. Water bottles containing SW and […] or only SW were changed every other day. […] The supernatant was transferred into a new tube and the total protein concentration was measured with the BCA protein assay (Thermo Fisher Scientific, Waltham, MA). A panel of 13 cytokines was quantified with a bead-based ELISA kit (BioLegend, San Diego, CA) following the manufacturer's protocol. […]

The subject of experiment [2] is endotoxin-treated murine bone marrow derived macrophages. The experiment in a line: Cytokine expression in endotoxin-treated bone marrow derived macrophages. The format is cell-based.
Experiment [3] deals with free fatty acids. The experiment can be described thus: Quantification of free fatty acids in liver and serum of WD mice. The format is in vivo, mice (male B6 129SF1/J). From the text:
Animal experiments. Male B6 129SF1/J mice at 6 weeks of age were obtained from Jackson Laboratories (Bar Harbor, ME). Mice were acclimatized to the animal facility for one week. At the start of the experiment, mice were randomly divided into four groups (n=10 for each group). Three of the four groups were fed ad libitum a Western diet (WD) with 40% Kcal from fat and containing 0.15% cholesterol (D12079B, Research Diets) and a sugar water (SW) solution (23.1 g/L d-fructose+18.9 g/L d-glucose) as previously described (DIAMOND model (15)). After 8 weeks, the three groups of WD-fed mice were randomly selected for treatment with vehicle (WD group) or low (WD-50 group) or high dose (WD-100 group) of […]. The WD group was fed WD and drank sugar water. The WD-50 and WD-100 groups were fed WD and drank sugar water containing, respectively, 50 or 100 mg […] per kg body weight. […] Quantification of free fatty acids. Serum and liver FFAs were analyzed using targeted LC-MS experiments performed on a quadrupole-time of flight instrument (TripleTOF 5600+, AB Sciex, Framingham, MA) as previously described with minor modifications (Tables 2 and 5). […] Free fatty acids (FFAs) in the liver and serum were quantified using product ion scan experiments (TripleTOF 5600+, AB Sciex, Framingham, MA). […] “Light” experiments with low collision energy were used for quantification. […]

Experiment [4] has as its system AMPK. The experiment in a line: AMPK Western blot in RAW 264.7 macrophages stimulated with palmitate and LPS. As to conditions: RAW 264.7, 1 mM I3A pre-treatment. The format is cell-based, murine. In general terms: A western blot detects proteins with antibodies after separation by electrophoresis.
In experiment [5] the test system is hepatocytes. The experiment in a line: Cultured hepatocytes (lipid droplet loaded, TNF-α; Fasn/SREBP-1c expression). It is filed as cell-based.

With `O=C([O-])Cc1c[nH]c2ccccc12.[Na+]` [I3A, Indole-3-acetate sodium salt], in experiment [1] (I3A treated vs WD), the “liver IL-10” value is given as “downregulated this cytokine”. Moreover, the “expression of pro-inflammatory cytokines in liver (panel, TNFα, IL-6, Mcp-1 etc.)” value in experiment [1] (WD-50 and WD-100 vs WD, sodium salt) was “dose-dependently attenuated the production of type 1, 2 and 3 cytokines; also recorded: reduced the expression of these cytokines in a dose-dependent manner”. In addition, the “expression of IL-1, TNF-α, and MCP-1” value in experiment [2] was “dose-dependently downregulate the expression of IL-1, TNF-α, and MCP-1”. Moreover, the “liver total FFA concentration, significance of I3A effect” value in experiment [3] (I3A treatment vs WD) is listed as “no significant effect”. The “liver total FFA concentration, reduction” value in experiment [3] (WD-100 group vs WD, p=0.11) is on record as 36 % reduction. Besides, in experiment [4], the p-AMPK level entry is “upregulated p-AMPK to baseline levels” and the “total AMPK level” value was “without altering total AMPK”. Also, the “TNF-α induced production of saturated free fatty acids” value in experiment [5] (cultured hepatocytes loaded with lipid droplets (mimicking steatosis), AhR dependent) was “abrogated TNF-α induced production of saturated free fatty acids”. Further, in experiment [5] (hepatocytes, AhR dependent manner), the “expression of Fasn and SREBP-1c” value was “decreased the expression of Fasn and its transcriptional regulator SREBP-1c”.
